Source: patent US20230278983A1, “INDOLE DERIVATIVES AND USES THEREOF FOR TREATING A CANCER” (Universite Claude Bernard Lyon 1, priority 2020, published 2023)

What follows are molecules tested against CK2 (Homo sapiens (Human), UniProt P68400) (assay: Radiometric CK2 kinase assay). Details: not given.
CK2, sequence (P68400 whole entry): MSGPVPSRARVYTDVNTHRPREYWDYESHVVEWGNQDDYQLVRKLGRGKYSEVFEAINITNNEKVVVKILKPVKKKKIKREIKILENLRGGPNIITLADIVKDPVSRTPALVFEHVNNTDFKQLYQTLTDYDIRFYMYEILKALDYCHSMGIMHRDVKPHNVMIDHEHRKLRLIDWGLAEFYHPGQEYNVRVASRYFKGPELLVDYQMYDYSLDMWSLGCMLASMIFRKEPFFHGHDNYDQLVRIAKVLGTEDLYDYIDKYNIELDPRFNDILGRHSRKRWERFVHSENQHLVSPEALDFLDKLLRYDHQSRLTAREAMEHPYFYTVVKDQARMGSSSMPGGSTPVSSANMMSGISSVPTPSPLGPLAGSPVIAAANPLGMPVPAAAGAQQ
Assay type: biochemical
In the case of CC(C)COC(=O)c1[nH]c2ccc(F)cc2c1-c1cn(CC2CCN(CCNS(=O)(=O)c3ccc(OC(C)C)cc3)CC2)nn1 [AB917, isobutyl 5-fluoro-3-(1-((1-(2-((4-isopropoxyphenyl)sulfonamido)ethyl)piperidin-4-yl)methyl)-1H-1,2,3-triazol-4-yl)-1H-indole-2-carboxylate], the IC50 is reported as 0.6 µM. In the case of CCOC(=O)c1[nH]c2ccc(Cl)cc2c1-c1cn(CC2CCN(CCNS(=O)(=O)c3ccc4ccccc4c3)CC2)nn1 [AB551, Ethyl 5-chloro-3-(1-((1-(2-(naphthalene-2-sulfonamido)ethyl)piperidin-4-yl)methyl)-111-1,2,3-triazol-4-yl)-1H-indole-2-carboxylate], the IC50 is reported as 1.78 µM. With CCOC(=O)c1[nH]c2ccc(Cl)cc2c1-c1cn(CC2CCN(CCNS(=O)(=O)c3ccc(Cl)cc3)CC2)nn1 [AB460, Ethyl 5-chloro-3-(1-((1-(2-((4-chlorophenyl)sulfonamido)ethyl)piperidin-4-yl)methyl)-1H-1,2,3-triazol-4-yl)-1H-indole-2-carboxylate] the IC50 was 2.51 µM. CC(C)COC(=O)c1[nH]c2ccc(F)cc2c1-c1cn(CC2CCN(CCNS(=O)(=O)c3ccc(C4=CCOCC4)cc3)CC2)nn1 [AB1074, isobutyl 3-(1-((1-(2-((4-(3,6-dihydro-2H-pyran-4-yl)phenyl)sulfonamido)ethyl)piperidin-4-yl)methyl)-1H-1,2,3-triazol-4-yl)-5-fluoro-1H-indole-2-carboxylate] was tested, and the IC50 was 0.069 µM. Work on CC(C)COC(=O)c1[nH]c2ccc(F)cc2c1-c1cn(CC2CCN(CCNS(=O)(=O)c3ccc4c(c3)OCCCO4)CC2)nn1 [AB1072, isobutyl 3-(1-((1-(2-((3,4-dihydro-2H-benzo[b][1,4]dioxepine)-7-sulfonamido)ethyl)piperidin-4-yl)methyl)-1H-1,2,3-triazol-4-yl)-5-fluoro-1H-indole-2-carboxylate] yielded an IC50 of 0.1 µM. For COc1cccc(OC)c1-c1ccc(S(=O)(=O)NCCN2CCC(Cn3cc(-c4c(C(=O)OCC(C)C)[nH]c5ccc(F)cc45)nn3)CC2)cc1 [AB1206, isobutyl 3-(1-((1-(2-((2′,6′-dimethoxy-[1,1′-biphenyl])-4-sulfonamido)ethyl)piperidin-4-yl)methyl)-1H-1,2,3-triazol-4-yl)-5-fluoro-1H-indole-2-carboxylate], the IC50 was 0.016 µM. CC(=O)c1[nH]c2ccc(F)cc2c1-c1cn(CC2CCN(CCNS(=O)(=O)c3ccc(-c4c(F)cccc4F)cc3)CC2)nn1 [AB1288, N-(2-(4-((4-(2-acetyl-5-fluoro-1H-indol-3-yl)-1H-1,2,3-triazol-1-yl)methyl)piperidin-1-yl)ethyl)-2′,6′-difluoro-[1,1′-biphenyl]-4-sulfonamide] showed an IC50 of 0.078 µM.

Same assay, conditions: compound at 0.10 μM; ATP 10 μM
For CC(=O)c1[nH]c2ccc(F)cc2c1-c1cn(CC2CCN(CCNS(=O)(=O)c3ccc(-c4c(C)cccc4C#N)cc3)CC2)nn1 [AB1452, N-(2-(4-((4-(2-acetyl-5-fluoro-1H-indol-3-yl)-1H-1,2,3-triazol-1-yl)methyl)piperidin-1-yl)ethyl)-2′-cyano-6′-methyl-[1,1′-biphenyl]-4-sulfonamide], the inhibition at 0.1 µM was 36%. CC(C)C(=O)c1[nH]c2ccc(F)cc2c1-c1cn(CC2CCN(CCNS(=O)(=O)c3ccc(-c4cccnc4Cl)cc3)CC2)nn1 [AB1282, 4-(2-chloropyridin-3-yl)-N-(2-(4-((4-(5-fluoro-2-isobutyryl-1H-indol-3-yl)-1H-1,2,3-triazol-1-yl)methyl)piperidin-1-yl)ethyl)benzenesulfonamide] showed an inhibition at 0.1 µM of 15%. O=S(=O)(NCCN1CCC(Cn2cc(-c3c(CO)[nH]c4ccc(F)cc34)nn2)CC1)c1ccc(-c2c(O)cccc2F)cc1 [AB1406, 2′-fluoro-N-(2-(4-((4-(5-fluoro-2-(hydroxymethyl)-1H-indol-3-yl)-1H-1,2,3-triazol-1-yl)methyl)piperidin-1-yl)ethyl)-6′-hydroxy-[1,1′-biphenyl]-4-sulfonamide] was tested, and the inhibition at 0.1 µM was 29%. Work on CCC(C)C(=O)c1[nH]c2ccc(F)cc2c1-c1cn(CC2CCN(CCNS(=O)(=O)c3ccc(CC(C)C)cc3)CC2)nn1 (stereo not shown) [AB1302, N-(2-(4-((4-(5-fluoro-2-(2-methylbutanoyl)-1H-indol-3-yl)-1H-1,2,3-triazol-1-yl)methyl)piperidin-1-yl)ethyl)-4-isobutylbenzenesulfonamide] yielded an inhibition at 0.1 µM of 10%. Molecule CC(=O)c1[nH]c2ccc(F)cc2c1-c1cn(CC2CCN(CCNS(=O)(=O)Cc3ccc(C(F)(F)F)cc3)CC2)nn1 [AB1315, N-(2-(4-((4-(2-acetyl-5-fluoro-1H-indol-3-yl)-1H-1,2,3-triazol-1-yl)methyl)piperidin-1-yl)ethyl)-1-(4-(trifluoromethyl)phenyl)methanesulfonamide] has an inhibition at 0.1 µM of 27%. CC(C)Cc1ccc(S(=O)(=O)NCCN2CCC(Cn3cc(-c4c(CO)[nH]c5ccc(F)cc45)nn3)CC2)cc1 [AB1405, N-(2-(4-((4-(5-fluoro-2-(hydroxymethyl)-1H-indol-3-yl)-1H-1,2,3-triazol-1-yl)methyl)piperidin-1-yl)ethyl)-4-isobutylbenzenesulfonamide] showed an inhibition at 0.1 µM of 11%.

Same assay, conditions: compound at 1 μM; ATP 10 μM
CC(C)COC(=O)c1[nH]c2ccc(F)cc2c1-c1cn(CC2CCN(Cc3ccc(Oc4ccc5c(c4)CCO5)c(C(C)C)c3)CC2)nn1 [AB717, Isobutyl 3-(1-((1-(4-((2,3-dihydrobenzofuran-5-yl)oxy)-3-isopropylbenzyl)piperidin-4-yl)methyl)-1H-1,2,3-triazol-4-yl)-5-fluoro-1H-indole-2-carboxylate] was tested, and the inhibition at 1 µM was 2%. COCc1ccccc1-c1ccc(CN2CCC(Cn3cc(-c4c(C(=O)OCC(C)C)[nH]c5ccc(F)cc45)nn3)CC2)cc1Cl [AB680, Isobutyl 3-(1-((1-((2-chloro-2′-(methoxymethyl)-[1,1′-biphenyl]-4-yl)methyl)piperidin-4-yl)methyl)-1H-1,2,3-triazol-4-yl)-5-fluoro-1H-indole-2-carboxylate] showed an inhibition at 1 µM of 11%. With COc1ccccc1-c1ccc(CN2CCC(Cn3cc(-c4c(C(=O)OCC(C)C)[nH]c5ccc(F)cc45)nn3)CC2)cc1Cl [AB689, Isobutyl 3-(1-((1-((2-chloro-2′-methoxy-[1,1′-biphenyl]-4-yl)methyl)piperidin-4-yl)methyl)-1H-1,2,3-triazol-4-yl)-5-fluoro-1H-indole-2-carboxylate] the inhibition at 1 µM was 6%. In the case of CC(=O)c1cccc(-c2ccc(CN3CCC(Cn4cc(-c5c(C(=O)OCC(C)C)[nH]c6ccc(F)cc56)nn4)CC3)cc2Cl)c1 [AB739, Isobutyl 3-(1-((1-((3′-acetyl-2-chloro-[1,1′-biphenyl]-4-yl)methyl)piperidin-4-yl)methyl)-1H-1,2,3-triazol-4-yl)-5-fluoro-1H-indole-2-carboxylate], the inhibition at 1 µM is reported as 7%.

Same assay, conditions: inhibition of CK2 activity; ATP 10 μM
CC(C)COC(=O)c1[nH]c2ccc(F)cc2c1-c1cn(CC2CCN(CCNS(=O)(=O)c3ccc(-c4c(O)cccc4F)cc3)CC2)nn1 [AB1402, isobutyl 5-fluoro-3-(1-((1-(2-((2′-fluoro-6′-hydroxy-[1,1′-biphenyl])-4-sulfonamido)ethyl)piperidin-4-yl)methyl)-1H-1,2,3-triazol-4-yl)-1H-indole-2-carboxylate] gave an IC50 of 0.045 µM. For O=C(c1[nH]c2ccc(F)cc2c1-c1cn(CC2CCN(CCNS(=O)(=O)Cc3ccc(C(F)(F)F)cc3)CC2)nn1)C1CC1 [AB1305, N-(2-(4-((4-(2-(cyclopropanecarbonyl)-5-fluoro-1H-indol-3-yl)-1H-1,2,3-triazol-1-yl)methyl)piperidin-1-yl)ethyl)-1-(4-(trifluoromethyl)phenyl)methanesulfonamide], the IC50 was 0.48 µM.
